Reference: PubChem BioAssay (NCI)
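Cells were grown in 96-well plates and exposed to each compound for 48 hours at five concentrations; endpoints were interpolated linearly between bracketing concentrations, or set to the highest concentration if not reached. TGI denotes the concentration required for complete inhibition of growth.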

What was measured:
Assay in all cases: growth of human tumour cells (NCI), 48 h
[1] = tested on: 786-0 renal
[2] = tested on: A549 NSCLC
[3] = tested on: ACHN renal
[4] = tested on: COLO 205 colon
[5] = tested on: HCC-2998 colon
[6] = tested on: HCT-15 colon
[7] = tested on: HOP-62 NSCLC
[8] = tested on: KM12 colon
[9] = tested on: MCF7 breast
[10] = tested on: NCI-H226 lung
[11] = tested on: NCI/ADR-RES ovarian
[12] = tested on: OVCAR-4 ovarian
[13] = tested on: SK-MEL-2 melanoma
[14] = tested on: T-47D breast
[15] = tested on: TK-10 renal
[16] = tested on: U251 CNS
[17] = tested on: UACC-62 melanoma
[18] = tested on: MALME-3M melanoma
[19] = tested on: SF-295 CNS
[20] = tested on: SNB-75 CNS

SMILES	TGI [1] [µM]	TGI [2] [µM]	TGI [3] [µM]	TGI [4] [µM]	TGI [5] [µM]	TGI [6] [µM]	TGI [7] [µM]	TGI [8] [µM]	TGI [9] [µM]	TGI [10] [µM]	TGI [11] [µM]	TGI [12] [µM]	TGI [13] [µM]	TGI [14] [µM]	TGI [15] [µM]	TGI [16] [µM]	TGI [17] [µM]	TGI [18] [µM]	TGI [19] [µM]	TGI [20] [µM]
Clc1ccc(/C=C/c2nc(-c3ccccc3)cn3c2nc2ccccc23)cc1Cl	> 100	> 100	> 100	> 100	> 100	> 100	> 100	> 100	> 100	> 100	> 100	> 100	> 100	> 100	> 100	> 100	> 100			
COc1ccc(N2C(=O)c3cc([N+](=O)[O-])cnc3S2(=O)=O)cc1	> 100	> 100	> 100	> 100	> 100	> 100	> 100	> 100		> 100	> 100	> 100	> 100		> 100	> 100	> 100	> 100	> 100	> 100
CCN(CC)C(=O)CCn1ccc(=O)[nH]c1=O	> 100	> 100	> 100	> 100		> 100	> 100	> 100		> 100		> 100	> 100		> 100	> 100	> 100	> 100	> 100	> 100
O=C1C(Cl)C(c2cccc([N+](=O)[O-])c2)N1n1cnc2ccccc2c1=O (stereo not given)	> 100	> 100	> 100	> 100	> 100	> 100	> 100	> 100		> 100		> 100	> 100		> 100	> 100	> 100	> 100	> 100	> 100
C[C@@H]1C(=O)CC2C(C)(C)CCC[C@]2(C)[C@@]12CC[C@]1(C=COC1)O2 (stereo not given in full)	> 100	> 100	> 100	> 100	> 100	> 100	> 100	> 100		> 100		> 100	44.3				> 100	79.5	> 100	
C/C(=N/NC(=O)c1ccccc1S(N)(=O)=O)C(CN1CCCCC1)C(C1=C(O)C2C=CC=CC2OC1=O)c1ccccc1 (stereo not given)	> 100	> 100	> 100	41.3		> 100	> 100	> 100		> 100		> 100	> 100		> 100	> 100	> 100	> 100	> 100	> 100
N=C(N)SCc1ccc2c(c1)S(=O)(=O)c1ccccc1O2	> 100	39.8	31.9	> 100	56.8	87.9	42.4	32.7	34.7	48.9	> 100	66.9	34.5	73.8	34.7	38.2	34.9		56.8	28.7
CN(C)CCNc1ccc(NCC[N+](C)(C)Cc2ccc([N+](=O)[O-])cc2)c2c1C(=O)c1c(O)ccc(O)c1C2=O	> 100			> 100		> 100	> 100	> 100		> 100	> 100	> 100	> 100	> 100		> 100	> 100			> 100
O=C1CSCC(=O)Nc2ccccc2N1	> 100	> 100	> 100	> 100		> 100	> 100	> 100		> 100	> 100	> 100	> 100	> 100	> 100	> 100	> 100	> 100	> 100	
COc1ccc2c(O)c(Oc3ccc(Cl)cc3)c(=O)oc2c1	> 100	> 100	> 100		> 100	> 100	> 100	> 100	> 100	> 100		> 100		> 100	> 100	> 100		> 100	> 100	> 100
COC(=O)c1c(O)c(C#N)c2[nH]c3ccccc3n2c1=O	> 100	> 100	> 100	> 100	> 100	> 100	> 100	> 100	> 100	> 100	> 100	> 100	> 100		> 100	> 100	> 100	> 100	> 100	> 100
Cc1ccc(S(=O)(=O)n2cc(/C=C/C#N)c(-c3cn(S(=O)(=O)c4ccc(C)cc4)cc3-c3cn(S(=O)(=O)c4ccc(C)cc4)cc3/C=C/C#N)c2)cc1	> 100		> 100	> 100		> 100	> 100	> 100		> 100	> 100	> 100	> 100	> 100	> 100		> 100	> 100	> 100	> 100
CC[C@@H]1/C=C/C=C/C[C@H](C)[C@@H](O)[C@@H](C)C(=O)[C@H](C)[C@@H](O)[C@H](C)C(=O)[C@H](C)[C@@H](O)[C@H](C)/C=C/C(=O)O[C@H]2[C@@H](C)[C@@H](CC1)O[C@@]1(CC[C@@H](C)[C@@H](CC(C)O)O1)[C@@H]2C (stereo not given in full)	> 25	> 16.9	16.7	4.62	8.52	> 25	> 25	> 21.5	7.49		> 19.1	> 19.3	18.1		> 23.6	> 25	14.5	> 24		> 7.9
